From paper PMC6017705, “Discovery of N-(Naphtho[1,2-b]Furan-5-Yl) Benzenesulfonamides as Novel Selective Inhibitors of Triple-Negative Breast Cancer (TNBC)” (Molecules : A Journal of Synthetic Chemistry and Natural …, 2018)
Entries after “also recorded” stand apart in the source; their conditions may differ.

Legend:
[1] = system: MDA-MB-436; test: Cell viability assay, MDA-MB-436; type: cell-based; conditions: Homo sapiens, TNBC cell line
Method: In addition to three TNBC cell lines (MDA-MB-231, MDA-MB-436, and SUM-159) and the breast cancer cell line MCF-7, we employed the normal mammary epithelial cell line MCF-10A, which was used for testing the compounds for their effects on normal breast cells (Table 6).
(§1) Four human TNBC cell lines (MDA-MB-231, MDA-MB-453, SUM-159, and BT-20), a non-TNBC breast cancer cell line (MCF-7) and a normal mammary epithelial cell line (MCF-10A) were cultured with DMEM (phenol free) supplemented with 2.5% CS-FBS and 1% L-Glu. 1.2 × 10^3 of cells were seeded into 384-well microplates and maintained for 24 h in an incubator at 37 °C in a 5% CO2, saturated humidified atmosphere. Different compounds were added into cells with 9 concentrations from 0.156 to 40 μM for 72 h. […] Then CCK-8 solution was added into cells and incubated for another 4 h. Absorbance was measured with a Microplate Reader at 450/600 nm. The IC50 values of the compounds on TNBC cell lines were derived using GraphPad Prism 5.0 (GraphPad Software, Inc., La Jolla, CA, USA).

[2] = system: SUM-159; test: Cell viability assay (CCK-8), SUM-159; type: cell-based, human; conditions: for inhibition at 5 µg/mL: SUM159; for IC50: TNBC cell line, CCK-8, 72 h, 0.156 to 40 μM
Method: as §1, with “Different compounds were added into cells with 9 concentrations from 0.156 to 40 μM for 72 h.” left out

[3] = system: MCF-10A; test: Cell viability assay (CCK-8), MCF-10A; type: cell-based, human; conditions: for IC50: Homo sapiens, MCF-10A, normal mammary epithelial cell line, CCK-8, 72 h
Method: as §1

[4] = system: MDA-MB-231; test: Cell viability assay (CCK-8), MDA-MB-231; type: cell-based, human; conditions: for inhibition at 5 µg/mL: MDA-MB-231; for IC50: TNBC cell line, CCK-8, 72 h, 0.156 to 40 μM
Method: as §1, with “Different compounds were added into cells with 9 concentrations from 0.156 to 40 μM for 72 h.” left out

[5] = system: MCF-7; test: Cell viability assay (CCK-8), MCF-7; type: cell-based, human; conditions: for inhibition at 5 µg/mL / IC50: Homo sapiens; for inhibition at 5 µg/mL: MCF7; for IC50: MCF7, 72 h, non-TNBC breast cancer cell line, CCK-8, 72 h
Method: as §1, with “Different compounds were added into cells with 9 concentrations from 0.156 to 40 μM for 72 h.” left out

[6] = system: BT-20; test: Cell viability assay (CCK-8), BT-20; type: cell-based; conditions: Homo sapiens, TNBC cell line, CCK-8, 72 h, 0.156 to 40 μM
Method: as §1

[7] = system: MDA-MB-453; test: Cell viability assay (CCK-8), MDA-MB-453; type: cell-based; conditions: Homo sapiens, TNBC cell line, CCK-8, 72 h, 0.156 to 40 μM
Method: as §1

[8] = system: signal transducer and activator of transcription 3 (STAT3); design: method as in ref 21, 22 = [21]; 21. Tweardy D.J. Huang X. Kasembeli M.M. Stat3 Inhibitors W.O. Patent 2009149192 A1 10 12 2009 || [22]; 22. Tweardy D.J. Kasembeli M.M. Xu M.X. Eckols T.K. Methods and Compositions for Treatment of Muscle Wasting, Muscle Weakness, and/or Cachexia Using Inhibitors of Stat3 W.O. Patent 2015010107 A1 22 1; conditions: antitumor agent; cited from earlier work
[9] = system: TNBC cell lines; test: Cell viability assay, different TNBC cell lines; type: cell-based, human; conditions: for IC50: Homo sapiens
Method: as §1

[10] = system: heme detoxification protein (HDP); design: method as in ref 20 = [20]; 20. Rathore D. Jani D. Nagarkatti R. HDP (Heme Detoxification Protein) Involved in Hemozoin Formation in Plasmodium and Theileria as an Anti-protozoal Target, and High-throughput Screening for Antimal; conditions: cited from earlier work

| SMILES | IC50 [1] [µM] | inhibition at 5 µg/mL ([2]; Homo sapiens) [%] | IC50 ([2]; Homo sapiens, SUM159, 72 h) [µM] | IC50 [3] [µM] | inhibition at 5 µg/mL ([4]; Homo sapiens) [%] | IC50 ([4]; Homo sapiens, MDA-MB-231, 72 h) [µM] | inhibition at 5 µg/mL [5] [%] | IC50 [6] [µM] | IC50 [7] [µM] | IC50 [5] [µM] | inhibition of STAT3 (in words) [8] | inhibitory effect on MCF-10A (in words) [3] | inhibitory effect on MCF-7 (in words) [5] | IC50 [9] [µM] | IC50 [2] [µM] | IC50 [4] [µM] | fold reduced inhibitory activity compared to the ester compound (2-5) ([9]; both TNBC cell lines (MDA-MB-231, SUM-159)) | antimalarial HDP inhibitor (in words) [10] |
| --- | --- | --- | --- | --- | --- | --- | --- | --- | --- | --- | --- | --- | --- | --- | --- | --- | --- | --- |
| COC(=O)c1c(C(C)(C)C)oc2c1cc(NS(=O)(=O)c1ccc(OC)cc1)c1ccccc12 [Compound 3-12] | 7.13 | 90.4 | 11.5 | > 40 | 71.4 | 11.9 | 76.3 |  |  |  |  |  |  |  |  |  |  |  |
| COc1ccc(S(=O)(=O)Nc2cc(Cl)c(O)c3ccccc23)cc1 [Compound 2-9] |  |  | 18.1 |  |  | 6.22 |  | > 40 | 4.61 | > 40 | inhibition |  |  |  |  |  |  |  |
| CCOc1ccc(S(=O)(=O)Nc2cc3c(C(C)=O)c(C)oc3c3ccccc23)cc1 [Compound 3-17] | ~0.01 | 61 | 1.94 | 0.66 | 68.6 | 1.77 | 40.5 |  |  |  |  |  |  |  |  |  |  |  |
| CCOc1ccc(S(=O)(=O)Nc2cc3c(C(=O)OC)c(C)oc3c3ccccc23)cc1 [Compound 3-9] | 2.08 | 60.8 | 2.66 | > 40 | 63 | 2.68 | 24.3 |  |  |  |  |  |  |  |  |  |  |  |
| COC(=O)c1c(C)oc2c1cc(NS(=O)(=O)c1ccc(OC)cc1)c1ccccc12 [Compound 2-5] | 1.99 | 56.8 | 2.91 | > 40 | 31 | 3.12 |  | > 40 | 2.95 | > 40 |  | no inhibitory activity | no inhibitory effect; also recorded: no inhibitory activity | 2 to 3 |  |  |  |  |
| CCOC(=O)c1c(C)oc2c1cc(NS(=O)(=O)c1ccc(OCC)cc1)c1ccccc12 [Compound 3-37] | 1.41 | 66.8 | 4.09 | > 40 | 59.7 | 5.49 | 42.5 |  |  |  |  |  |  |  |  |  |  |  |
| COc1ccc(S(=O)(=O)Nc2cc3c(C(=O)O)c(C)oc3c3ccccc23)cc1 [Compound 2-5-COOH] |  |  | > 20 |  |  | > 20 |  |  |  |  |  |  |  |  | 24.2 | ~24 | approximately 10 fold |  |
| CCOC(=O)c1c(C)oc2c1cc(NS(=O)(=O)c1ccc(OC)cc1)c1ccccc12 [Compound 2-8] | 2.8 | 61.8 | 2.5 | > 40 | 62.9 | 2.96 |  | 10.1 | 3.09 | > 40 |  | no inhibitory activity | no inhibitory effect; also recorded: no inhibitory activity | 2 to 3 |  |  |  |  |
| CCCCOC(=O)c1c(C)oc2c1cc(NS(=O)(=O)c1ccc(OC)cc1)c1ccccc12 [Compound 3-3] | 3.36 | 42.1 | 8.66 | > 40 | 51.1 | 3.25 | 29.7 |  |  |  |  |  |  |  |  |  |  |  |
| CCOc1ccc(S(=O)(=O)Nc2cc(Cl)c(O)c3ccccc23)cc1 [Compound 2-11] |  |  | > 40 |  |  | 6.92 |  | > 40 | 5.72 | > 40 |  |  |  |  |  |  |  | inhibitor |
